Assay results taken from ChEMBL document CHEMBL2169823, “cis-4-amino-L-proline residue as a scaffold for the synthesis of cyclic and linear endomorphin-2 analogues: part 2” (J Med Chem, 2012).

Legend:
[1] = biological target: Delta-type opioid receptor (Mus musculus, UniProt P32300); experiment: Agonist activity at delta opioid receptor in ICR mouse vas deferens assessed as inhibition of electrically-induced smooth muscle contraction after 3 mins; type: functional, tissue-based
[2] = biological target: Mu-type opioid receptor (Cavia porcellus, UniProt P97266); experiment: Agonist activity at mu opioid receptor in Hartley guinea pig ileum longitudinal muscle myenteric plexus assessed as inhibition of electrically-induced smooth muscle contraction after 3 mins; type: functional, tissue-based
Sequence of Mu-type opioid receptor (Cavia porcellus, UniProt P97266) (P97266 whole entry): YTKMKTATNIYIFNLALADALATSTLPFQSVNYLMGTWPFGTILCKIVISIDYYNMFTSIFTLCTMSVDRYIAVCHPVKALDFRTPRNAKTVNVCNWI

[3] = biological target: Delta-type opioid receptor (Homo sapiens, UniProt P41143); experiment: Displacement of [3H]DPDPE from delta opioid receptor transfected in […] HN9.10 cells after 3 hrs by liquid scintillation counter; type: cell-based
Sequence of Delta-type opioid receptor (Homo sapiens, UniProt P41143) (P41143 whole entry): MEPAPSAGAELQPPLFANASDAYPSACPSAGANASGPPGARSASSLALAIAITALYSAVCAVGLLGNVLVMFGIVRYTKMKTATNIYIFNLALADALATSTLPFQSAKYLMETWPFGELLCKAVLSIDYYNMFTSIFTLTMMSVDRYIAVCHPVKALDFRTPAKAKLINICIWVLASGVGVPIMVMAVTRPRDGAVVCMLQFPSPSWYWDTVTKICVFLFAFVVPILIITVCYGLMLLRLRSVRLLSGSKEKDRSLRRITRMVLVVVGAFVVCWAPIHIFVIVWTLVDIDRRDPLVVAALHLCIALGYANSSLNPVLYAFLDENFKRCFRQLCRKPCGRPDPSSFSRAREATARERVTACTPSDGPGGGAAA

[4] = biological target: Mu-type opioid receptor (Homo sapiens, UniProt P35372); experiment: Displacement of [3H]DAMGO from mu opioid receptor transfected in […] HN9.10 cells after 3 hrs by liquid scintillation counter; type: cell-based
Sequence of Mu-type opioid receptor (Homo sapiens, UniProt P35372) (P35372 whole entry): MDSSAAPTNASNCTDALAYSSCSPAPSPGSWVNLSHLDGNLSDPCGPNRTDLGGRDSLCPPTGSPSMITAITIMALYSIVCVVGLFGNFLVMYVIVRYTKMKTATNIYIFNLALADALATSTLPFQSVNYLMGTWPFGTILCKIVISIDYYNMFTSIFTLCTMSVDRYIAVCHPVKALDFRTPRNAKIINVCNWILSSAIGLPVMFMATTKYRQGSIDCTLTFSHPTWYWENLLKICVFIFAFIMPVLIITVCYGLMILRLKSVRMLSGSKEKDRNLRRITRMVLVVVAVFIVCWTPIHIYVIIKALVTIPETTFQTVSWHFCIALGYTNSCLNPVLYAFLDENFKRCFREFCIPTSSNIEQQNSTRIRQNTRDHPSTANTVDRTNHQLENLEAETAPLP

[5] = biological target: Kappa-type opioid receptor (Homo sapiens, UniProt P41145); experiment: Displacement of [3H]U69593 from human kappa opioid receptor expressed in CHO cells after 60 mins by liquid scintillation counter; type: cell-based
Sequence of Kappa-type opioid receptor (P41145 whole entry): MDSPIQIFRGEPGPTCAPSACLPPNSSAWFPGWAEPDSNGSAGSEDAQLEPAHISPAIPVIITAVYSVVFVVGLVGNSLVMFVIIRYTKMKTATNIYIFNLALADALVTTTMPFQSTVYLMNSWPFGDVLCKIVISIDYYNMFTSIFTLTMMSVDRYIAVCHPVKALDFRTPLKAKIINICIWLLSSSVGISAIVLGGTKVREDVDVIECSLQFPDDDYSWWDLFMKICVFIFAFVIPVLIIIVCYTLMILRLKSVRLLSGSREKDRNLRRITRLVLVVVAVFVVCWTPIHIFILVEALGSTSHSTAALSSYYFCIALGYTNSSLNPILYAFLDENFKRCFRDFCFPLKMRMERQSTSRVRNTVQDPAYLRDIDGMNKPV

[6] = biological target: Delta-type opioid receptor (Mus musculus) (UniProt P32300); experiment: Agonist activity at delta opioid receptor in ICR mouse vas deferens assessed as inhibition of electrically-induced smooth muscle contraction at 1 uM after 3 mins; type: functional, tissue-based
Sequence of Delta-type opioid receptor (Mus musculus) (P32300 whole entry): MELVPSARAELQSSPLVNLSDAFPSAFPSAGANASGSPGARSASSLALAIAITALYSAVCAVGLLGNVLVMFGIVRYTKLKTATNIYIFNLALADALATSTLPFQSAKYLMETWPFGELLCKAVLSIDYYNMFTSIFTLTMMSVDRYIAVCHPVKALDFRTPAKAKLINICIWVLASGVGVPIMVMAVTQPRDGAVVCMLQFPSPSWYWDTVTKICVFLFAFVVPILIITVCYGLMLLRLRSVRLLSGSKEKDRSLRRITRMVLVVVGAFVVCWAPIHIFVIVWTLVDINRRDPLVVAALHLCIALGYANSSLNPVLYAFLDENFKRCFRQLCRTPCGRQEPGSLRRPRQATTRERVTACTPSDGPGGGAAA

[7] = biological target: Mu-type opioid receptor (Cavia porcellus) (UniProt P97266); experiment: Agonist activity at mu opioid receptor in Hartley guinea pig ileum longitudinal muscle myenteric plexus assessed as inhibition of electrically-induced smooth muscle contraction at 1 uM after 3 mins; type: functional, tissue-based
Sequence of Mu-type opioid receptor (Cavia porcellus) (P97266 whole entry): as the sequence (P97266 whole entry) above

Sequence of Delta-type opioid receptor (Mus musculus, UniProt P32300) (P32300 whole entry): as the sequence (P32300 whole entry) above

N[C@@H](Cc1ccc(O)cc1)C(=O)N1C[C@@H]2C[C@H]1C(=O)N[C@H](Cc1ccccc1)C(=O)N[C@H](Cc1ccccc1)C(=O)N2
IC50 [1]: 1400 nM
IC50 [2]: 480 nM
Ki ([3]; read-out: Ki): 1010 nM
Ki [4]: 63 nM
Ki ([5]; read-out: Ki): > 10000 nM

Br.NC(=O)[C@@H](Cc1ccccc1)NC(=O)[C@H](Cc1ccccc1)NC(=O)[C@@H]1C[C@H](N)CN1C(=O)[C@@H](N)Cc1ccc(O)cc1
inhibition [6]: 5.4%
IC50 [2]: 2300 nM
Ki [3]: Not Active
Ki [4]: > 10000 nM
Ki ([5]; cho): Not Active

Br.NC(=O)[C@@H](Cc1ccccc1)NC(=O)[C@@H](Cc1ccccc1)NC(=O)[C@@H]1C[C@H](N)CN1C(=O)[C@@H](N)Cc1ccc(O)cc1
inhibition [6]: 0%
inhibition [7]: 0.9%
Ki [3]: Not Active
Ki [4]: 3700 nM
Ki ([5]; cho): Not Active

N[C@@H](Cc1ccc(O)cc1)C(=O)N1C[C@@H]2C[C@H]1C(=O)N[C@H](Cc1ccccc1)C(=O)N[C@@H](Cc1ccccc1)C(=O)N2
IC50 [1]: 950 nM
IC50 [2]: 330 nM
Ki ([3]; read-out: Ki): 860 nM
Ki [4]: 38 nM
Ki ([5]; read-out: Ki): > 10000 nM

Br.N[C@H]1C[C@@H](C(=O)N[C@H](Cc2ccccc2)C(=O)N[C@@H](Cc2ccccc2)C(=O)O)N(C(=O)[C@@H](N)Cc2ccc(O)cc2)C1
inhibition [6]: 3.6%
inhibition [7]: 11%
Ki [3]: Not Active
Ki [4]: 1010 nM
Ki ([5]; cho): Not Active

Br.N[C@H]1C[C@@H](C(=O)N[C@H](Cc2ccccc2)C(=O)N[C@H](Cc2ccccc2)C(=O)O)N(C(=O)[C@@H](N)Cc2ccc(O)cc2)C1
inhibition [6]: 3.6%
inhibition [7]: 2%
Ki ([3]; read-out: Ki): > 10000 nM
Ki [4]: > 10000 nM
Ki ([5]; cho): Not Active

Br.N[C@H]1C[C@@H](C(=O)N[C@@H](Cc2ccccc2)C(=O)N[C@H](Cc2ccccc2)C(=O)O)N(C(=O)[C@@H](N)Cc2ccc(O)cc2)C1
inhibition [6]: 1.3%
inhibition [7]: 3.2%
Ki [3]: Not Active
Ki [4]: 760 nM
Ki ([5]; cho): Not Active

Br.NC(=O)[C@H](Cc1ccccc1)NC(=O)[C@@H](Cc1ccccc1)NC(=O)[C@@H]1C[C@H](N)CN1C(=O)[C@@H](N)Cc1ccc(O)cc1
inhibition [6]: 14%
inhibition [7]: 12%
Ki [3]: Not Active
Ki [4]: 760 nM
Ki ([5]; cho): Not Active
